In ChEMBL document CHEMBL1201862, “PubChem BioAssay data set” (2004):
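In this assay, cells in 96-well plates receive the compound at five concentrations for 48 hours. Endpoints are linearly interpolated between the surrounding concentrations. Abbreviation: GI50, concentration required for 50% inhibition of growth.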 The source made the active and inactive calls. No stated cut-off is given here; in the data, active = GI50 up to about 1.1 µM and inactive = higher.

What was measured:
Experiment in all cases: inhibition of tumour cell growth, NCI panel, 48 h
[1] = system: SW-620
[2] = system: OVCAR-4
[3] = system: OVCAR-3
[4] = system: SK-OV-3
[5] = system: SK-MEL-28
[6] = system: A498
[7] = system: NCI-H23
[8] = system: HOP-92
[9] = system: UACC-257
[10] = system: M14
[11] = system: SF-268
[12] = system: NCI-H522
[13] = system: U-251
[14] = system: HL-60
[15] = system: KM12
[16] = system: SK-MEL-2
[17] = system: COLO 205
[18] = system: SR

SMILES	GI50 [1]	GI50 [2]	GI50 [3]	GI50 [4]	GI50 [5]	GI50 [6]	GI50 [7]	GI50 [8]	GI50 [9]	GI50 [10]	GI50 [11]	GI50 [12]	GI50 [13]	GI50 [14]	GI50 [15]	GI50 [16]	GI50 [17]	GI50 [18]
Nc1c(C(=O)Nc2ccccc2)[n+]([O-])c2ccccc2[n+]1[O-]	15.2 µM (inactive)	17.6 µM (inactive)	17.3 µM (inactive)	> 100 µM (inactive)	17.8 µM (inactive)	16.9 µM (inactive)	12.5 µM (inactive)	16.7 µM (inactive)	17.9 µM (inactive)	15.6 µM (inactive)	25.1 µM (inactive)	2.09 µM (inactive)	12.9 µM (inactive)	17.9 µM (inactive)	14.2 µM (inactive)	15.8 µM (inactive)	15.5 µM (inactive)	–
Cn1c2c(c3ccccc31)C1CCCCC1C1C(=O)NC(=O)C21 (configuration not stated)	52 µM (inactive)	56.5 µM (inactive)	17 µM (inactive)	> 100 µM (inactive)	88.9 µM (inactive)	22.5 µM (inactive)	> 100 µM (inactive)	–	–	57.9 µM (inactive)	70.1 µM (inactive)	–	> 100 µM (inactive)	26.6 µM (inactive)	54.3 µM (inactive)	–	39.9 µM (inactive)	32.1 µM (inactive)
O=C(/C=C/c1ccc(Cl)c(Cl)c1)c1ccc(F)cc1	2.05 µM (inactive)	19.2 µM (inactive)	18.6 µM (inactive)	29 µM (inactive)	18.6 µM (inactive)	50.9 µM (inactive)	29.8 µM (inactive)	32.2 µM (inactive)	23.8 µM (inactive)	16.9 µM (inactive)	28.2 µM (inactive)	4.45 µM (inactive)	13 µM (inactive)	11.9 µM (inactive)	8.65 µM (inactive)	–	23.3 µM (inactive)	–
CCN(CC)CCCC(C)Nc1ccnc2ccc3nn(C)nc3c12 (configuration not stated)	22.3 µM (inactive)	–	–	> 100 µM (inactive)	–	37 µM (inactive)	> 100 µM (inactive)	–	36 µM (inactive)	23.7 µM (inactive)	> 100 µM (inactive)	–	65.6 µM (inactive)	30.1 µM (inactive)	42.3 µM (inactive)	–	28.6 µM (inactive)	32.8 µM (inactive)
Cc1cc(N(CCC#N)CCC#N)ccc1/C=C(/NC(=O)/C=C/c1ccccc1)C(N)=O	> 100 µM (inactive)	–	> 100 µM (inactive)	> 100 µM (inactive)	> 100 µM (inactive)	> 100 µM (inactive)	> 100 µM (inactive)	–	> 100 µM (inactive)	> 100 µM (inactive)	> 100 µM (inactive)	13.8 µM (inactive)	> 100 µM (inactive)	> 100 µM (inactive)	> 100 µM (inactive)	> 100 µM (inactive)	> 100 µM (inactive)	–
CC1C(O)=C(O)c2ccccc2N1O (configuration not stated)	98.9 µM (inactive)	> 100 µM (inactive)	> 100 µM (inactive)	> 100 µM (inactive)	> 100 µM (inactive)	> 100 µM (inactive)	54.7 µM (inactive)	31.9 µM (inactive)	83.2 µM (inactive)	> 100 µM (inactive)	> 100 µM (inactive)	25.1 µM (inactive)	> 100 µM (inactive)	44.2 µM (inactive)	> 100 µM (inactive)	> 100 µM (inactive)	> 100 µM (inactive)	–
CC1=C(C(=O)CC(=O)C(=O)Nc2ccccc2)Sc2ccccc2N1	> 100 µM (inactive)	> 100 µM (inactive)	> 100 µM (inactive)	> 100 µM (inactive)	> 100 µM (inactive)	> 100 µM (inactive)	> 100 µM (inactive)	2.84 µM (inactive)	> 100 µM (inactive)	> 100 µM (inactive)	> 100 µM (inactive)	> 100 µM (inactive)	> 100 µM (inactive)	> 100 µM (inactive)	> 100 µM (inactive)	> 100 µM (inactive)	> 100 µM (inactive)	–
COC(=O)/C(=C\c1ccc(N(CCC#N)CCC#N)cc1)NC(=O)c1cc([N+](=O)[O-])ccc1Cl	> 100 µM (inactive)	> 100 µM (inactive)	> 100 µM (inactive)	> 100 µM (inactive)	> 100 µM (inactive)	> 100 µM (inactive)	> 100 µM (inactive)	–	> 100 µM (inactive)	> 100 µM (inactive)	> 100 µM (inactive)	> 100 µM (inactive)	> 100 µM (inactive)	–	> 100 µM (inactive)	> 100 µM (inactive)	> 100 µM (inactive)	30.5 µM (inactive)
CCOc1ccc(NC(=O)C2=C(C)NC(C)=C(C(=O)Nc3ccc(OCC)cc3)C2c2ccc(O)c(OC)c2)cc1	> 100 µM (inactive)	36.9 µM (inactive)	> 100 µM (inactive)	> 100 µM (inactive)	53.2 µM (inactive)	19.3 µM (inactive)	> 100 µM (inactive)	20.4 µM (inactive)	47.8 µM (inactive)	> 100 µM (inactive)	> 100 µM (inactive)	56.6 µM (inactive)	55.6 µM (inactive)	42.7 µM (inactive)	47.9 µM (inactive)	64.6 µM (inactive)	96.8 µM (inactive)	–
O=C(Cn1ccnc1[N+](=O)[O-])NCc1ccc(F)cc1	> 100 µM (inactive)	> 100 µM (inactive)	33.5 µM (inactive)	> 100 µM (inactive)	> 100 µM (inactive)	> 100 µM (inactive)	> 100 µM (inactive)	> 100 µM (inactive)	> 100 µM (inactive)	> 100 µM (inactive)	> 100 µM (inactive)	> 100 µM (inactive)	> 100 µM (inactive)	> 100 µM (inactive)	> 100 µM (inactive)	> 100 µM (inactive)	> 100 µM (inactive)	–
Cc1ccc(NC(=O)CC/C(CC(=O)C(C)(C)C)=N/NC(=O)C[N+](C)(C)C)cc1C	> 100 µM (inactive)	> 100 µM (inactive)	> 100 µM (inactive)	> 100 µM (inactive)	> 100 µM (inactive)	–	> 100 µM (inactive)	–	> 100 µM (inactive)	> 100 µM (inactive)	> 100 µM (inactive)	–	> 100 µM (inactive)	> 100 µM (inactive)	> 100 µM (inactive)	> 100 µM (inactive)	> 100 µM (inactive)	84.1 µM (inactive)
OCC(O)C(O)C(O)c1nn(-c2ccccc2)c2nc3cc(Cl)c(Cl)cc3nc12 (configuration not stated)	88.9 µM (inactive)	35.6 µM (inactive)	40.3 µM (inactive)	> 100 µM (inactive)	48 µM (inactive)	–	49.8 µM (inactive)	–	63.1 µM (inactive)	17.7 µM (inactive)	55.1 µM (inactive)	27.5 µM (inactive)	70.5 µM (inactive)	27 µM (inactive)	> 10 µM (inactive)	33 µM (inactive)	44.1 µM (inactive)	33.9 µM (inactive)
C1CN2CCN3CCN4CCN1[PH]243	> 100 µM (inactive)	> 100 µM (inactive)	> 100 µM (inactive)	> 100 µM (inactive)	> 100 µM (inactive)	> 100 µM (inactive)	> 100 µM (inactive)	–	> 100 µM (inactive)	> 100 µM (inactive)	–	> 100 µM (inactive)	> 100 µM (inactive)	> 100 µM (inactive)	> 100 µM (inactive)	> 100 µM (inactive)	> 100 µM (inactive)	> 100 µM (inactive)
Cc1cc2c(cc1C)[n+]([O-])c(C(=O)CC(=O)C(=O)Nc1c(C(C)C)cccc1C(C)C)c(C)[n+]2[O-]	> 100 µM (inactive)	> 100 µM (inactive)	> 100 µM (inactive)	> 100 µM (inactive)	> 100 µM (inactive)	> 100 µM (inactive)	> 100 µM (inactive)	> 100 µM (inactive)	> 100 µM (inactive)	> 100 µM (inactive)	> 100 µM (inactive)	> 100 µM (inactive)	> 100 µM (inactive)	–	> 100 µM (inactive)	> 100 µM (inactive)	> 100 µM (inactive)	> 100 µM (inactive)
CCOP(=O)(OCC)C1CCCCOC1=O (configuration not stated)	> 100 µM (inactive)	> 100 µM (inactive)	> 100 µM (inactive)	> 100 µM (inactive)	> 100 µM (inactive)	> 100 µM (inactive)	> 100 µM (inactive)	–	> 100 µM (inactive)	> 100 µM (inactive)	> 100 µM (inactive)	–	> 100 µM (inactive)	> 100 µM (inactive)	> 100 µM (inactive)	> 100 µM (inactive)	> 100 µM (inactive)	–
C=CC(=O)Nc1ccccc1CC(c1c[nH]c2ccccc12)c1c[nH]c2ccccc12	20.2 µM (inactive)	–	17.7 µM (inactive)	19.8 µM (inactive)	17.8 µM (inactive)	–	20 µM (inactive)	–	18.9 µM (inactive)	16.3 µM (inactive)	24.1 µM (inactive)	22.8 µM (inactive)	–	–	19.7 µM (inactive)	17.7 µM (inactive)	16.7 µM (inactive)	–
CP1(=O)CCCCC1	> 100 µM (inactive)	> 100 µM (inactive)	> 100 µM (inactive)	> 100 µM (inactive)	> 100 µM (inactive)	–	> 100 µM (inactive)	> 100 µM (inactive)	> 100 µM (inactive)	> 100 µM (inactive)	> 100 µM (inactive)	–	> 100 µM (inactive)	> 100 µM (inactive)	> 100 µM (inactive)	> 100 µM (inactive)	> 100 µM (inactive)	> 100 µM (inactive)
COC(=O)C12C(=O)O[C@H](C)C1(O)C(C)C(=O)N2C (some centres not stated)	–	> 100 µM (inactive)	> 100 µM (inactive)	> 100 µM (inactive)	> 100 µM (inactive)	–	> 100 µM (inactive)	< 0.01 µM (active)	–	> 100 µM (inactive)	–	–	> 100 µM (inactive)	–	> 100 µM (inactive)	> 100 µM (inactive)	> 100 µM (inactive)	> 100 µM (inactive)
